From patent US11912699B2, “Tau-protein targeting compounds and associated” (Arvinas Operations, Inc., priority 2019, dated 2024)
Where a name gives a salt, the structure may show the parent alone.

These compounds were tested against T1, Tau P301L (Homo sapiens, UniProt P10636, P618L) (assay: In vitro tau degradation assay in CHOK1 Tau P301L cells (sarkosyl insoluble tau, WES)). Details: CHO-K1; remaining tau protein in sarkosyl insoluble pellet; CHOK1 Tau P301L cells treated 48 hours with test compound at 1 μM, doxycycline removed for the last 24 hours; relative to DMSO doxycycline control; read-out: Tau Protein Degradation effect at 1 μM.
T1 construct: expressed in transfected cells
Type: cell-based
Experimental: Exemplary bifunctional molecules of the present disclosure are represented by the structures in Table 1, which includes associated data. In vitro tau protein degradation data in CHOK1 Tau P301L cells, as described below, is reported based on the remaining tau protein in the sarkosyl insoluble pellet following treatment of cells for 48 hours with test compound at the 1 μM concentration where the last 24 hours doxycycline was removed. The data are represented relative to DMSO doxycycline control: • A ≤50% of tau protein remaining (>50% of tau protein degraded) • B >50% of tau protein remaining ([…] of tau protein degraded)
Data for compounds in Table 1 was generated using in vitro tau Degradation Assay protocol as described in Methods for FIGS. 2A and 2B below.
FIGS. 2A and 2B. (2A) Tau expression was induced by addition (+) of doxycycline (1 μg/ml) to ChoK1-Tau P301L clone D1.
In vitro tau Degradation Assay for FIGS. 2A and 2B. T-Rex CHOK1 cells are maintained in Ham's F-12 Nutrient Mix (ThermoFisher) plus 10% Fetal Bovine Serum Tetracycline Negative (Corning) with 10 ug/mL Blasticidin S HCl (Gibco) and 200 ug/mL Zeocin (100 mg/mL, Invitrogen). A stable clone expressing Tau P301L in the presence of doxycycline (1 μg/ml), clone D1 was selected. Compounds were diluted to indicated concentrations and used to treat cells for the indicated times. Cells were harvested from either 96, 24, 6, or 10 cm dishes coated with Poly-D-Lysine (Corning) in ice cold PBS or Buffer H+HALT Protease and phosphatase inhibitors (Thermofisher). Sarkosyl Insoluble tau was isolated as described in Eckermann et al. and Greenberg and Davies, accordingly. WES™ capillary electrophoresis analysis was performed on the Sarkosyl Insoluble tau fraction using Tau1 antibody (Milipore) unless otherwise indicated, as specified in the manufacturers specification (ProteinSimple).

T1 sequence (P10636 1-441 isoform P10636-8 P301L): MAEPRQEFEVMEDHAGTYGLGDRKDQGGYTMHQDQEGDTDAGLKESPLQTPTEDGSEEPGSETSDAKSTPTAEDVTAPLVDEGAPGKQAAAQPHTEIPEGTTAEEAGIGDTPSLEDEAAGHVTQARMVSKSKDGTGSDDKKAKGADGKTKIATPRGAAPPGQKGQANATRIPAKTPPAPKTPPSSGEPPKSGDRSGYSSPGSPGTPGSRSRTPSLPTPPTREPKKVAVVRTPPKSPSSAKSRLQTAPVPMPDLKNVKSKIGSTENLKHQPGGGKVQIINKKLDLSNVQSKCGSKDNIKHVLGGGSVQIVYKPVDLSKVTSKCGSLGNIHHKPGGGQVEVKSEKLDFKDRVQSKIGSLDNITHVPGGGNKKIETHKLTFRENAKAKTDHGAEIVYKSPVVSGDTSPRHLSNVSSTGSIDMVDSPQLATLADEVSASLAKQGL

Row | SMILES | remaining activity at 1 µM [%]
1 | Cc1ncsc1-c1ccc([C@H](C)NC(=O)[C@@H]2C[C@@H](O)CN2C(=O)[C@H](c2cc(OCCN3CCC(O[C@H]4C[C@H](Oc5ccc(-c6ccc7c8cnccc8n(C)c7c6)cn5)C4)CC3)no2)C(C)C)cc1 [Compound 399, (2S,4R)-4-hydroxy-1-((S)-3-methyl-2-(3-(2-(4-((1r,3S)-3-((5-(5-methyl-5H-pyrido[4,3-b]indol-7-yl)pyridin-2-yl)oxy)cyclobutoxy)piperidin-1-yl)ethoxy)isoxazol-5-yl)butanoyl)-N-((S)-1-(4-(4-methylthiazol-5-yl)phenyl)ethyl) pyrrolidine-2-carboxamide] | > 50
2 | CC(C)N(CCCCOc1ccc2c(c1)C(=O)N(C1CCC(=O)NC1=O)C2=O)[C@H]1CC[C@H](O[C@H]2C[C@H](Oc3ccc(-c4ccc5c6cnccc6n(C)c5c4)cn3)C2)CC1 (stereo partly drawn) [Compound 436, 2-(2,6-dioxopiperidin-3-yl)-5-(4-(isopropyl((1R,4r)-4-((1r,3R)-3-((5-(5-methyl-5H-pyrido[4,3-b]indol-7-yl)pyridin-2-yl)oxy)cyclobutoxy)cyclohexyl)amino)butoxy)isoindoline-1,3-dione] | < 50
3 | CN(C)c1ccn2cc(-c3ccc(OCCOCCOCCOc4ccc5c(c4)C(=O)N(C4CCC(=O)NC4=O)C5=O)cc3)nc2c1 (stereo not shown) [Compound 440, 5-(2-(2-(2-(4-(7-(dimethylamino)imidazo [1,2-a]pyridin-2-yl)phenoxy)ethoxy)ethoxy)ethoxy)-2-(2,6-dioxopiperidin-3-yl)isoindoline-1,3-dione] | > 50
4 | O=C1CCC(N2C(=O)c3ccc(OCCCCCN4CCC(OC5CN(c6ncc(-c7ccc8c9cnccc9n(C(F)F)c8c7)cc6C(F)(F)F)C5)CC4)cc3C2=O)C(=O)N1 (stereo not shown) [Compound 442, 5-[5-[14-[1-[5-[5-(Difluoromethyl)pyrido[4,3-b]indol-7-yl]-3-(trifluoromethyl)-2-pyridyl]azetidin-3-yl]oxy-1-piperidyl]pentoxy]-2-(2,6-dioxo-3-piperidyl)isoindoline-1,3-dione formate] | < 50
5 | Cc1cnc(Nc2ccc3cnccc3c2)cc1N1CCC(CCN2CCN(c3ccc4c(c3)C(=O)N(C3CCC(=O)NC3=O)C4=O)CC2)CC1 (stereo not shown) [Compound 447, 2-(2,6-dioxopiperidin-3-yl)-5-(4-(2-(1-(2-(isoquinolin-6-ylamino)-5-methylpyridin-4-yl)piperidin-4-yl)ethyl)piperazin-1-yl)isoindoline-1,3-dione] | < 50
6 | O=C1CCC(N2C(=O)c3ccc(OCCCCCN4CCC(OC5CN(c6ccc(-c7ccn8c(n7)nc7ccccc78)cn6)C5)CC4)cc3C2=O)C(=O)N1 (stereo not shown) [Compound 450, 2-(2,6-dioxo-3-piperidyl)-5-[5-[4-[1-(5-pyrimido[1,2-a]benzimidazol-2-yl-2-pyridyl)azetidin-3-yl]oxy-1-piperidyl]pentoxy]isoindoline-1,3-dione formate] | < 50
7 | O=C1CCC(N2C(=O)c3ccc(OCCN4CC5(C4)CN(C[C@H]4C[C@H](OC6CCN(c7ccn8c(n7)nc7ccccc78)CC6)C4)C5)cc3C2=O)C(=O)N1 (stereo partly shown) [Compound 460, 5-(2-(6-(((1r,3r)-3-((1-(benzo[4,5]imidazo[1,2-a]pyrimidin-2-yl)piperidin-4-yl)oxy)cyclobutyl)methyl)-2,6-diazaspiro[3.3]heptan-2-yl)ethoxy)-2-(2,6-dioxopiperidin-3-yl)isoindoline-1,3-dione] | > 50

Further lines, results first:

Row | remaining activity at 1 µM [%] | SMILES
8 | < 50 | O=C1CCC(N2C(=O)c3ccc(N4CCN(CCC5CCN(c6ccc(-c7ccc8c(c7)[nH]c7ccncc78)cn6)CC5)CC4)cc3C2=O)C(=O)N1 (stereo not shown) [Compound 400, 2-(2,6-dioxopiperidin-3-yl)-5-(4-[2-[1-(5-[5H-pyrido[4,3-b]indol-7-yl]pyridin-2-yl)piperidin-4-yl]ethyl]piperazin-1-yl)isoindole-1,3-dione]
9 | < 50 | Cn1c2ccncc2c2ccc(-c3ccc(O[C@H]4C[C@H](N(C)C5CC6(C5)CN(CCC5CCN(c7ccc8c(c7)C(=O)N(C7CCC(=O)NC7=O)C8=O)CC5)C6)C4)nc3)cc21 (stereo partly shown) [Compound 401, 2-(2,6-dioxopiperidin-3-yl)-5-(4-(2-(6-(methyl((1r,3r)-3-((5-(5-methyl-5H-pyrido[4,3-b]indol-7-yl)pyridin-2-yl)oxy)cyclobutyl)amino)-2-azaspiro[3.3]heptan-2-yl)ethyl)piperidin-1-yl) isoindoline-1,3-dione]
10 | < 50 | Cn1c2ccncc2c2ccc(-c3ccc(N4CC(OC5CCN(CCOc6ccc7c(c6)C(=O)N(C6CCC(=O)NC6=O)C7=O)CC5)C4)nc3)cc21 (stereo not shown) [Compound 416, 2-(2,6-dioxopiperidin-3-yl)-5-[2-(4-[[1-(5-[5-methylpyrido[4,3-b]indol-7-yl]pyridin-2-yl)azetidin-3-yl]oxy]piperidin-1-yl)ethoxy]isoindole-1,3-dione]
11 | > 50 | Cn1c2ccncc2c2ccc(-c3ccc(OCCOCCOCCOc4ccc5c(c4)C(=O)N(C4CCC(=O)NC4=O)C5=O)nc3)nc21 (stereo not shown) [Compound 419, 2-(2,6-dioxopiperidin-3-yl)-5-(2-(2-(2-((5-(9-methyl-9H-pyrrolo[2,3-b:4,5-c′]dipyridin-2-yl)pyridin-2-yl)oxy)ethoxy)ethoxy)ethoxy)isoindoline-1,3-dione]
12 | > 50 | Cn1c2ccncc2c2ccc(-c3ccc(OC4CN(C5CCN(CCCCCOc6ccc7c(c6)C(=O)N(C6CCC(=O)NC6=O)C7=O)CC5)C4)nc3)cc21 (stereo not shown) [Compound 424, 2-(2,6-dioxopiperidin-3-yl)-5-((5-(4-(3-((5-(5-methyl-5H-pyrido[4,3-b]indol-7-yl)pyridin-2-yl)oxy)azetidin-1-yl)piperidin-1-yl)pentyl)oxy) isoindoline-1,3-dione]
13 | > 50 | O=C1CCC(N2C(=O)c3ccc(OCCOCCOCCN4CCC(c5ccc6c(c5)[nH]c5ccncc56)CC4)cc3C2=O)C(=O)N1 (stereo not shown) [Compound 431]
14 | > 50 | Cn1c2ccncc2c2ccc(-c3ccc(N4CC(C(=O)N5CCN(CCCCCOc6ccc7c(c6)C(=O)N(C6CCC(=O)NC6=O)C7=O)CC5)C4)nc3)cc21 (stereo not shown) [Compound 446, 2-(2,6-dioxopiperidin-3-yl)-5-((5-(4-(1-(5-(5-methyl-5H-pyrido[4,3-b]indol-7-yl)pyridin-2-yl)azetidine-3-carbonyl)piperazin-1-yl)pentyl)oxy) isoindoline-1,3-dione]
15 | < 50 | N#Cc1cc(-c2ccc3c4cnccc4n(C(F)F)c3c2)cnc1N1CCC(CCN2CCN(c3ccc4c(c3)C(=O)N(C3CCC(=O)NC3=O)C4=O)CC2)CC1 (stereo not shown) [Compound 454, 5-(5-(difluoromethyl)-5H-pyrido[4,3-b]indol-7-yl)-2-(4-(2-(4-(2-(2,6-dioxopiperidin-3-yl)-1,3-dioxoisoindolin-5-yl)piperazin-1-yl)ethyl)piperidin-1-yl)nicotinonitrile]
16 | > 50 | Cn1c2ccncc2c2ccc(-c3ccc(OC4CC5(C4)CN(C(=O)CN4CCN(CC6CN(c7ccc8c(c7)C(=O)N(C7CCC(=O)NC7=O)C8=O)C6)CC4)C5)nc3)cc21 (stereo not shown) [Compound 458, 2-(2,6-dioxopiperidin-3-yl)-5-(3-((4-(2-(6-((5-(5-methyl-5H-pyrido[4,3-b]indol-7-yl)pyridin-2-yl)oxy)-2-azaspiro [3.3]heptan-2-yl)-2-oxoethyl)piperazin-1-yl)methyl)azetidin-1-yl)isoindoline-1,3-dione]
